Measurements from patent US12077503B2, “Substituted cyclic amides and their use as herbicides” (FMC CORPORATION, priority 2015, dated 2024).
Where two headings read alike, the source gives them in different places.

What was measured:
Assay in all cases: Test A postemergence
Assay type in all cases: in vivo
[1] = tested on: barnyardgrass (Echinochloa crus-galli); conditions: Echinochloa crus-galli, post-emergence, 240 h; for pest or weed control at 125 g/ha: 125 g ai/ha; for pest or weed control at 31 g/ha: 31 g ai/ha, visual injury after approx. 10 d, 0 to 100 scale, 0 no effect, 100 complete control
Method in brief: (§1)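 Treatment is preemergence as a directed soil spray after planting, or postemergence at the one- to two-leaf stage, with test chemical in a non-phytotoxic solvent mixture plus surfactant. Plants stay in the greenhouse about 10 d before visual injury scoring on a 0 to 100 scale versus untreated controls.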

[2] = tested on: ryegrass, Italian (Italian ryegrass, Lolium multiflorum); conditions: Lolium multiflorum, post-emergence, 240 h; for pest or weed control at 125 g/ha: 125 g ai/ha; for pest or weed control at 31 g/ha: 31 g ai/ha, visual injury after approx. 10 d, 0 to 100 scale, 0 no effect, 100 complete control
Method in brief: as §1

[3] = tested on: ragweed (common ragweed, Ambrosia elatior); conditions: Ambrosia artemisiifolia, post-emergence, 240 h; for pest or weed control at 125 g/ha: 125 g ai/ha; for pest or weed control at 31 g/ha: 31 g ai/ha, visual injury after approx. 10 d, 0 to 100 scale, 0 no effect, 100 complete control
Method in brief: as §1

[4] = tested on: blackgrass (Alopecurus myosuroides); conditions: Alopecurus myosuroides, post-emergence, 240 h; for pest or weed control at 125 g/ha: 125 g ai/ha; for pest or weed control at 31 g/ha: 31 g ai/ha, visual injury after approx. 10 d, 0 to 100 scale, 0 no effect, 100 complete control
Method in brief: as §1

[5] = tested on: wheat (Triticum aestivum); conditions: Triticum aestivum, post-emergence, 240 h; for plant injury at 125 g/ha: 125 g ai/ha; for plant injury at 31 g/ha: 31 g ai/ha, visual injury after approx. 10 d, 0 to 100 scale, 0 no effect, 100 complete control
Method in brief: as §1

[6] = tested on: giant foxtail (Setaria faberii); conditions: Setaria faberi, post-emergence, 240 h; for pest or weed control at 125 g/ha: 125 g ai/ha; for pest or weed control at 31 g/ha: 31 g ai/ha, visual injury after approx. 10 d, 0 to 100 scale, 0 no effect, 100 complete control
Method in brief: as §1

[7] = Postemergence, read-out: Plant response rating, Barnyardgrass
[8] = Postemergence, read-out: Plant response rating, Ryegrass, Italian
[9] = Postemergence, read-out: Plant response rating, Ragweed
[10] = Postemergence, read-out: Plant response rating, Blackgrass
[11] = Postemergence, read-out: Plant response rating, Wheat
[12] = Postemergence, read-out: Plant response rating, Foxtail, Giant
[13] = postemergence, visual injury after approximately 10 d, 0 to 100 scale (0 no effect, 100 complete control), read-out: Plant response rating, Barnyardgrass
[14] = postemergence, visual injury after approximately 10 d, 0 to 100 scale (0 no effect, 100 complete control), read-out: Plant response rating, Ryegrass, Italian
[15] = postemergence, visual injury after approximately 10 d, 0 to 100 scale (0 no effect, 100 complete control), read-out: Plant response rating, Ragweed
[16] = postemergence, visual injury after approximately 10 d, 0 to 100 scale (0 no effect, 100 complete control), read-out: Plant response rating, Blackgrass
[17] = postemergence, visual injury after approximately 10 d, 0 to 100 scale (0 no effect, 100 complete control), read-out: Plant response rating, Foxtail, Giant
[18] = postemergence, visual injury after approximately 10 d, 0 to 100 scale (0 no effect, 100 complete control), read-out: Plant response rating, Wheat

Structure (SMILES) | pest or weed control at 31 g/ha [1, 7] [%] | pest or weed control at 31 g/ha [2, 8] [%] | pest or weed control at 31 g/ha [3, 9] [%] | pest or weed control at 31 g/ha [4, 10] [%] | plant injury at 31 g/ha [5, 11] [%] | pest or weed control at 31 g/ha [6, 12] [%] | pest or weed control at 125 g/ha [1, 13] [%] | pest or weed control at 125 g/ha [2, 14] [%] | pest or weed control at 125 g/ha [3, 15] [%] | pest or weed control at 125 g/ha [4, 16] [%] | pest or weed control at 125 g/ha [6, 17] [%] | plant injury at 125 g/ha [5, 18] [%] | also measured
CN1C[C@H](c2ccc(C(F)(F)F)c(Br)c2)[C@@H](C(=O)Nc2cccc(F)c2F)C1=O [Compound 804] | 20 | 0 | 0 | 0 | 0 | 60 |  |  |  |  |  |  | pest or weed control at 125 g/ha ([1]; postemergence, visual injury rating after approximately 10 d, read-out: Barnyardgrass plant response rating (0 to 100 scale, 0 no effect, 100 complete control)): 70%; pest or weed control at 125 g/ha ([2]; postemergence, visual injury rating after approximately 10 d, read-out: Ryegrass, Italian plant response rating (0 to 100 scale, 0 no effect, 100 complete control)): 0%; pest or weed control at 125 g/ha ([3]; postemergence, visual injury rating after approximately 10 d, read-out: Ragweed plant response rating (0 to 100 scale, 0 no effect, 100 complete control)): 0%; pest or weed control at 125 g/ha ([4]; postemergence, visual injury rating after approximately 10 d, read-out: Blackgrass plant response rating (0 to 100 scale, 0 no effect, 100 complete control)): 20%; plant injury at 125 g/ha ([5]; postemergence, visual injury rating after approximately 10 d, read-out: Wheat plant response rating (0 to 100 scale, 0 no effect, 100 complete control)): 20%; pest or weed control at 125 g/ha ([6]; postemergence, visual injury rating after approximately 10 d, read-out: Foxtail, Giant plant response rating (0 to 100 scale, 0 no effect, 100 complete control)): 80%
Cc1cc(F)cc([C@H]2CN(C)C(=O)[C@@H]2C(=O)Nc2cccc(F)c2C#N)c1 [Compound 800] | 80 | 0 | 0 | 0 | 0 | 80 | 80 | 20 | 0 | 20 | 80 |  | 
Cc1ccc([C@H]2CNC(=S)[C@@H]2C(=O)Nc2cccc(F)c2F)cc1C [Compound 765] |  |  |  |  |  |  | 70 | 40 | 0 | 0 | 0 | 0 | 
CN1C[C@H](c2ccc3c(c2)CCO3)[C@@H](C(=O)Nc2cccc(F)c2F)C1=O [Compound 1324] |  |  |  |  |  |  |  |  |  |  |  |  | pest or weed control at 125 g/ha ([1]; Postemergence, visual rating about 10 d after treatment, read-out: Barnyardgrass plant response rating (0 to 100 scale, 0 no effect, 100 complete control)): 90%; pest or weed control at 500 g/ha ([1]; Postemergence, 500 g ai/ha, visual injury, 0 to 100 scale (0 no effect, 100 complete control), approx. 10 d, read-out: Plant response rating, Barnyardgrass): 90%; pest or weed control at 125 g/ha ([2]; Postemergence, visual rating about 10 d after treatment, read-out: Ryegrass, Italian plant response rating (0 to 100 scale)): 30%; pest or weed control at 500 g/ha ([2]; Postemergence, 500 g ai/ha, visual injury, 0 to 100 scale (0 no effect, 100 complete control), approx. 10 d, read-out: Plant response rating, Ryegrass, Italian): 50%; pest or weed control at 125 g/ha ([3]; Postemergence, visual rating about 10 d after treatment, read-out: Ragweed plant response rating (0 to 100 scale)): 20%; pest or weed control at 500 g/ha ([3]; Postemergence, 500 g ai/ha, visual injury, 0 to 100 scale (0 no effect, 100 complete control), approx. 10 d, read-out: Plant response rating, Ragweed): 40%; pest or weed control at 125 g/ha ([4]; Postemergence, visual rating about 10 d after treatment, read-out: Blackgrass plant response rating (0 to 100 scale)): 40%; pest or weed control at 500 g/ha ([4]; Postemergence, 500 g ai/ha, visual injury, 0 to 100 scale (0 no effect, 100 complete control), approx. 10 d, read-out: Plant response rating, Blackgrass): 60%; plant injury at 125 g/ha ([5]; Postemergence, visual rating about 10 d after treatment, read-out: Wheat plant response rating (0 to 100 scale)): 30%; plant injury at 500 g/ha ([5]; Postemergence, 500 g ai/ha, visual injury, 0 to 100 scale (0 no effect, 100 complete control), approx. 10 d, read-out: Plant response rating, Wheat): 70%; pest or weed control at 125 g/ha ([6]; Postemergence, visual rating about 10 d after treatment, read-out: Foxtail, Giant plant response rating (0 to 100 scale)): 90%; pest or weed control at 500 g/ha ([6]; Postemergence, 500 g ai/ha, visual injury, 0 to 100 scale (0 no effect, 100 complete control), approx. 10 d, read-out: Plant response rating, Foxtail, Giant): 90%
O=C1NC[C@H](c2csc3ccccc23)[C@H]1C(=O)Nc1cccc(F)c1F [Compound 751] |  |  |  |  |  |  | 60 | 0 | 0 | 20 | 30 | 0 | 
COc1cc([C@H]2CN(C)C(=O)[C@@H]2C(=O)Nc2ccccc2SC)ccc1C(F)(F)F [Compound 769] |  |  |  |  |  |  | 50 | 30 | 0 | 0 | 70 | 0 | 
